PubChem BioAssay AID248 (DTP/NCI, 2004)
Several values for one entry are separate records, joined by “and”; a condition that tells them apart may be missing. Identical values can stand only once. Toxic doses and inconclusive results are not listed. Cut-off read from the data, not from the text of the source: active = T/C of 150% or more; inactive = T/C below 125%.

Test system: L1210 leukemia ip in BDF1 mice, survival T/C
Assay: NCI In Vivo Anticancer Drug Screen. Data for tumor model L1210 Leukemia (intraperitoneal) in B6D2F1 (BDF1) mice
Details: endpoint: mean survival time, higher = longer survival
Summary of the method: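 Value reflects the ratio of survival in compound-treated mice to survival in vehicle-treated controls, with both groups carrying the same transplanted tumor.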

[1] = dose: 100.0 mg/kg/injection, schedule: Q04DX003 (ip), vehicle: Klucel (hydroxypropylcellulose) (HPC)
[2] = dose: 200.0 mg/kg/injection, schedule: Q04DX003 (ip), vehicle: Klucel (hydroxypropylcellulose) (HPC)
[3] = dose: 400.0 mg/kg/injection, schedule: Q04DX003 (ip), vehicle: Klucel (hydroxypropylcellulose) (HPC)
[4] = dose: 100.0 mg/kg/injection, schedule: Q01DX001 (ip), vehicle: saline with Tween-80
[5] = dose: 200.0 mg/kg/injection, schedule: Q01DX001 (ip), vehicle: saline with Tween-80
[6] = dose: 400.0 mg/kg/injection, schedule: Q01DX001 (ip), vehicle: saline with Tween-80
[7] = dose: 100.0 mg/kg/injection, schedule: Q01DX001 (ip), vehicle: saline
[8] = dose: 200.0 mg/kg/injection, schedule: Q01DX001 (ip), vehicle: saline
[9] = dose: 400.0 mg/kg/injection, schedule: Q01DX001 (ip), vehicle: saline
[10] = dose: 100.0 mg/kg/injection, schedule: Q01DX009 (ip), vehicle: saline
[11] = dose: 100.0 mg/kg/injection, schedule: Q01DX009 (ip), vehicle: Klucel (hydroxypropylcellulose) (HPC)
[12] = dose: 6.25 mg/kg/injection, schedule: Q01DX009 (ip), vehicle: Klucel (hydroxypropylcellulose) (HPC)
[13] = dose: 12.5 mg/kg/injection, schedule: Q01DX009 (ip), vehicle: Klucel (hydroxypropylcellulose) (HPC)
[14] = dose: 25.0 mg/kg/injection, schedule: Q01DX009 (ip), vehicle: Klucel (hydroxypropylcellulose) (HPC)

Measured: T/C

COc1cc(CC2(C#N)c3ccccc3C=CN2C(=O)c2ccccc2)c(Oc2cc(CC3(C#N)c4ccccc4C=CN3C(=O)c3ccccc3)ccc2OC)cc1OC (configuration not stated)
inactive: [1] 98 % of control | [2] 93 % of control | [3] 92 % of control

CCC[As](=O)(O)CC[As](=O)(O)CCC
inactive: [4] 104 % of control | [5] 112 % of control | [6] 96 % of control

CC(=O)Nc1cc(Cl)ccc1SC1OC(COC(C)=O)C(OC(C)=O)C(OC(C)=O)C1OC(C)=O (configuration not stated)
inactive: [7] 93 % of control | [8] 95 % of control | [9] 87 % of control

O=C(Nc1cc([N+](=O)[O-])ccc1F)Oc1ccc2ccccc2c1
inactive: [10] 111 % of control | dose: 200.0 mg/kg/injection, schedule: Q01DX009 (ip), vehicle: saline 95 % of control | dose: 400.0 mg/kg/injection, schedule: Q01DX009 (ip), vehicle: saline 106 % of control

Cc1cc(C)[nH]c(=O)c1
inactive: dose: 100.0 mg/kg/injection, schedule: Q04DX003 (ip), vehicle: saline with Tween-80 109 % of control | dose: 200.0 mg/kg/injection, schedule: Q04DX003 (ip), vehicle: saline with Tween-80 102 % of control | dose: 400.0 mg/kg/injection, schedule: Q04DX003 (ip), vehicle: saline with Tween-80 98 % of control

ClCCN1CCC2(CC1)SSC1(CCN(CCCl)CC1)S2
inactive: dose: 10.0 mg/kg/injection, schedule: Q01DX009 (ip), vehicle: saline 107 % of control | dose: 20.0 mg/kg/injection, schedule: Q01DX001 (ip), vehicle: Klucel (hydroxypropylcellulose) (HPC) 108 % of control | dose: 20.0 mg/kg/injection, schedule: Q01DX009 (ip), vehicle: saline 103 % of control | dose: 40.0 mg/kg/injection, schedule: Q01DX001 (ip), vehicle: Klucel (hydroxypropylcellulose) (HPC) 121 % of control

CN(C)/C=C/C(=O)c1ccccc1[N+](=O)[O-]
inactive: [11] 97 % of control | [1] 100 % of control | dose: 200.0 mg/kg/injection, schedule: Q01DX009 (ip), vehicle: Klucel (hydroxypropylcellulose) (HPC) 100 % of control | [2] 105 % of control | dose: 400.0 mg/kg/injection, schedule: Q01DX009 (ip), vehicle: Klucel (hydroxypropylcellulose) (HPC) 103 % of control | [3] 100 % of control

COc1cc(Cc2c(C=O)[nH]c(=S)[nH]c2=O)cc(OC)c1OC
inactive: [4] 90 % of control | [5] 89 % of control | [6] 96 % of control

CCN(CC)CCOC(=O)Nc1cccc(Cl)c1
inactive: dose: 25.0 mg/kg/injection, schedule: Q01DX009 (ip), vehicle: saline 100 % of control | dose: 50.0 mg/kg/injection, schedule: Q01DX009 (ip), vehicle: saline 98 % of control | [10] 100 % of control and 109 % of control

CS(=O)(=O)n1c(C(Cl)c2ccccc2)nc2ccccc21 (configuration not stated)
inactive: [7] 102 % of control | [8] 104 % of control | [9] 120 % of control

Nc1nc(=S)c2[nH]c(N=Nc3ccc(S(=O)(=O)Nc4nccs4)cc3)nc2[nH]1
inactive: [12] 92 % of control | [13] 92 % of control | [14] 100 % of control | dose: 35.0 mg/kg/injection, schedule: Q01DX001 (ip), vehicle: Klucel (hydroxypropylcellulose) (HPC) 119 % of control | dose: 100.0 mg/kg/injection, schedule: Q01DX001 (ip), vehicle: Klucel (hydroxypropylcellulose) (HPC) 123 % of control | [11] 88 % of control

COc1cc2[nH]c(C)c(CCN3CCN(c4ccccc4)CC3)c2cc1OC
inactive: dose: 3.12 mg/kg/injection, schedule: Q01DX009 (ip), vehicle: Klucel (hydroxypropylcellulose) (HPC) 104 % of control | [12] 108 % of control | [13] 96 % of control | [14] 105 % of control | dose: 25.0 mg/kg/injection, schedule: Q04DX003 (ip), vehicle: Klucel (hydroxypropylcellulose) (HPC) 106 % of control | dose: 50.0 mg/kg/injection, schedule: Q04DX003 (ip), vehicle: Klucel (hydroxypropylcellulose) (HPC) 106 % of control

O=NN(CCCl)C(=O)Nc1ccc(S(=O)(=O)F)cc1
inactive: dose: 500.0 mg/kg/injection, schedule: Q01DX001 (ip), vehicle: carboxymethylcellulose (CMC) 110 % of control
